Like-named read-outs stand apart in the source and are kept apart here.
Legend:
[1] = CNS penetration: CSF to plasma unbound concentration ratio in rat; format: in vivo; conditions: CSF and plasma (unbound), iv, 15 minutes after intravenous administration, CCSF/Cplasma,u, read-out: Kp,uu,CSF,iv15min
Experimental: Test Example 4 Test for Evaluating CNS Penetration
(1) Measurement of Unbound Fraction (fp) in Rat Plasma
A test compound (100 μg/mL, 50% acetonitrile solution) at 1% (v/v) with respect to the amount of the plasma was added to rat plasma, and dispensed to a sample for a supernatant and a sample for the plasma. The sample for a supernatant was ultracentrifuged at 436,000×g and 37° C. for 140 minutes, and the sample for the plasma was incubated at 37° C. for 140 minutes.
After 140 minutes, the sample for a supernatant after the ultracentrifugation and the sample for the plasma were taken, and mixed with the blank plasma or the blank supernatant, respectively. Acetonitrile including an internal standard material was added to each of the samples, and after the centrifugation at 2150×g and 4° C. for 10 minutes the supernatant was injected into LC-MS/MS.
The unbound fraction in the plasma was calculated by the following equation.
(wherein fp: an unbound fraction in the plasma and D: a dilution rate of the plasma. fu,app=peak area ratio of supernatant sample/peak area ratio of the plasma sample, and peak area ratio=peak area of test compound/peak area of internal standard material).
(2) The CSF to Plasma Unbound Concentration Ratio in Rat
A 50% acetonitrile solution and an acetonitrile including internal standard material was added to the collected plasma or CSF. After centrifugation at 4° C. and 2150×g for 10 minutes, the supernatant was injected into LC-MS/MS, and the total concentration of the test compound in the plasma (Cplasma,t) and the concentration of the test compound in CSF (CCSF) were obtained. The unbound concentration in the plasma (Cplasma,u) of the test compound and the CSF-to plasma unbound concentration ratio (Kp,uu,CSF) of the test compound was calculated by the following equation.
(§1) Ex represents Example No. of the test compound.

[2] = system: 3T3; test: In vitro 3T3 NRU phototoxicity test; format: cell-based
Experimental: Test Example 6 Drug Pharmacokinetic Test, Safety Pharmacology Test, and Toxicity Test
Using some Example compounds of the present invention, a drug Pharmacokinetic test, a safety pharmacology test, and a toxicity test were carried out.
(iii) For the toxicity test, for example, an in vitro phototoxicity test was carried out. The evaluation of the in vitro phototoxicity test was carried out in accordance with Guidance for industry photosafety testing, Center for Drug Evaluation and Research Food and Drug Administration, 2003, which is a guideline of FDA (U.S. Food and Drug Administration), and Note for guidance on photosafety testing (CPMP/SWP/398/01, 2002) which is a guideline of EMA (European Medicines Agency), and the method described in OECD guideline for testing of chemicals 432: In vitro 3T3 NRU phototoxicity test, 2004, which is a test method described in the report of OECD.

[3] = target: T1, human MT2 receptor (Homo sapiens, UniProt P49286); test: Activation of human MT2 receptor in receptor-expressing HEK293 cells (intracellular Ca2+, FLIPR); format: cell-based; conditions: for Emax: HEK293, maximum reaction by ramelteon taken as 100%, solvent only 0%; for EC50: HEK293 cells stably expressing human MT2 and Gq/i chimeric G-protein, intracellular Ca2+ by FLIPR
T1 sequence (P49286 1-362): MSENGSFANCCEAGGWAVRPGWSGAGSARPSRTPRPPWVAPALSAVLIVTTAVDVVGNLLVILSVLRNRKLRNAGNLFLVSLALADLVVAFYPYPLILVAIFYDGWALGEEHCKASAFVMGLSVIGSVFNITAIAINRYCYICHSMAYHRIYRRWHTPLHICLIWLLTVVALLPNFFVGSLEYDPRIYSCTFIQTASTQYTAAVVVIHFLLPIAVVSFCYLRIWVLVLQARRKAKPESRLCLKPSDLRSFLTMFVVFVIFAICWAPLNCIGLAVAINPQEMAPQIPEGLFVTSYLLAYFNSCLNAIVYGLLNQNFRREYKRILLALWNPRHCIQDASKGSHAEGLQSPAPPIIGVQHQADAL
Experimental: (§2) (1) Isolation of Human MT1 and MT2 Receptor and Construction of Expression Vector
(§3) A human MT1 receptor gene (GenBank Accession No.: NM_005958.3) and a human MT2 receptor gene (GenBank Accession No.: NM_005959.3) were each introduced into an expression vector pCDNA3.1/Zeo (Invitrogen, Inc.).
(§4) (2) Construction of Cells Stably Expressing Human MT1 and Human MT2 Receptor
(§5) The introduction was carried out according to the attached instructions, using a Lipofectoamine (registered trademark) 2000 Reagent (Invitrogen, Inc.). Zeocin and hygromycin were used as a resistant drug, and the cell was incubated for 15 days at 0.02 mg/mL and 0.05 mg/mL, respectively, thereby acquiring drug-resistant clones.
(§6) (3) Measurement of Intracellular Ca^2+ Concentration by FLIPR (Registered Trademark)
(§7) The respective stably expressing cells were dispensed into 96-well poly-D-lysine-coated plates (Falcon Co.) to 40,000 cells/well the day before the experiment, and incubated overnight in a DMEM (Invitrogen, Inc.) medium including 10% FBS at 37° C. and 5% CO2. The medium was replaced with a loading buffer (washing solution (Hank's balanced salt solution (HBSS), 20 mM HEPES-NaOH, 2.5 mM probenecid) including Fluo-4AM (Dojindo Co.) at 4 μM), and incubated for 1 hour at 37° C. and 5% CO2. Thereafter, the cells were washed with a plate washer (ELx405, BIO-TEK Instrument, Inc.) set with the washing solution, and set in an intracellular Ca^2+ concentration measuring systems (FLIPR (registered trademark), Molecular Device Co.). The test compound was dissolved in the washing solution in advance, diluted to a final concentration of −12 to −5 log M, set in a FLIPR (registered trademark) device together with the cells, and added to the cells in the device. At this time, a change in the intracellular Ca^2+ concentrations was measured.
as §1

[4] = target: human MT1 receptor (Homo sapiens, UniProt P48039); test: Activation of human MT1 receptor in receptor-expressing HEK293 cells (intracellular Ca2+, FLIPR); format: cell-based; conditions: for EC50: HEK293 cells stably expressing human MT1 and Gq/i chimeric G-protein, intracellular Ca2+ by FLIPR
Experimental: as §2, §3, §4, §5, §6, §7, §1

[5] = system: urethral pressure; test: Effect of test compound on urethral pressure in anesthetized rats; format: in vivo, rat; conditions: urethane-anesthetized SD female rats
Description: Test Example 3 Test to Evaluate Effect of Test Compound on Urethral Pressure
It has been reported that an increase in the urethra pressure is useful for the treatment of urinary incontinence, particularly stress urinary incontinence (for example, Drugs, 64, 14, 1503-1516 (2004)). In order to confirm whether the compound of the present invention increases the urethra pressure and thus is useful for the treatment of urinary incontinence, particularly stress urinary incontinence, the following tests were carried out.
SD female rats were anesthetized with urethane and subjected to laparotomy. Then, the bladder apex was incised and a catheter was inserted from the bladder apex. Further, the catheter tip was ligated and fixed to be located in the proximal urethra portion. The catheter was connected to a pressure transducer and an infusion pump. Further, a catheter for administrating the compound was fitted into the femoral vein. Physiological saline was continuously infused into the urethra and the perfusion pressure in the urethra was measured. After the urethral pressure was stabilized, the test compound that had been dissolved in physiological saline, or physiological saline including 5% dimethylacetamide and 0.5% Cremophor was administered intravenously at 0.1 mg/kg, and a change in urethral pressures was measured.
Further, the results of administering an active metabolite of midodrine (ST-1059: purchased from CHEMIZON) (J. Urology, 118, 980-982 (1977)) which is an α1 adrenoceptor agonist and has an effect on stress urinary incontinence in rat doses (0.01 mg/kg) presumed to correspond to the clinical doses are referenced and shown in the Tables below. The increment value in the urethra pressures of ramelteon and the Example compounds of the present invention at the time of administration are shown in Table 4. Ex represents Example No. of the test compound.

[6] = system: isolated urethra; test: Isolated urethra contractile action; design: species or system rat; conditions: test compound at 1 μM; contractile response by 10 μM phenylephrine as 100%; SD female rat urethra; read-out: Isolated urethra contraction (%)
Experimental: Test Example 2 Isolated Urethra Contractile Action
(1) Evaluation Test on Urethra Contractile Action of Test Compound Using Isolated Urethra
The urethra was isolated from an SD female rat having a body weight of 100 to 500 g. The isolated urethra was incised longitudinally to give a rectangular strip specimen having a width of about 3 mm, which was suspended in the circular muscle direction in 10 mL of a tissue bath filled with a Krebs-Henseleit solution (pH 7.4). The Krebs-Henseleit solution was bubbled with 95% O2 and 5% CO2, and kept at 37° C. The resting tension was set to 0.5 g to record the isometric contraction. After the resting tension was stabilized, contraction was elicited by the addition of 10 μM phenylephrine. After washing and stabilizing, the test compound was added cumulatively to a final concentration of −12 to −5 log M to measure a contractile response. By taking the contractile response by 10 μM phenylephrine as 100%, the ratio of the contractile response in the concentration of the test compound at 1 μM was calculated.
as §1

[7] = system: isolated urethra; test: Test confirming that urethra contractile action by ramelteon is through MT1 and/or MT2 receptor (Luzindole); design: species or system rat; conditions: for Second contractile rate by ramelteon (%): 20 minutes before ramelteon 1 μM, first contraction as 100%
Experimental: (2) Test for Confirming that Urethra Contractile Action is Action Through MT1 and/or MT2 Receptor
The urethra was isolated from an SD female rat having a body weight of 100 to 500 g. The isolated urethra was incised longitudinally to give a rectangular strip specimen having a width of about 3 mm, which was suspended in the muscle parallel to the circular to 10 mL of a tissue bath filled with a Krebs-Henseleit solution (pH 7.4). […] The resting tension was set to 0.5 g to record the isometric contraction. After the resting tension was stabilized, contraction was elicited by the addition of 10 μM phenylephrine. After washing and stabilizing, the test compound (ramelteon) at 1 μM was added to measure a contractile response. After washing and stabilizing, a solvent or Luzindole (purchased from Wako Pure Chemical Industries, Ltd.) (0.1 μM, 1 μM, or 10 μM) was added to the same specimen, and after 20 minutes, ramelteon at 1 μM was added again thereto to measure a contractile reaction. When the first contraction by ramelteon at 1 μM was taken as 100%, the second contractile rate by ramelteon was measured.

[8] = HEK293, maximum reaction by ramelteon taken as 100%, solvent only 0%, read-out: MT1 Emax (%)

Chain of human MT1 receptor (P48039 whole entry): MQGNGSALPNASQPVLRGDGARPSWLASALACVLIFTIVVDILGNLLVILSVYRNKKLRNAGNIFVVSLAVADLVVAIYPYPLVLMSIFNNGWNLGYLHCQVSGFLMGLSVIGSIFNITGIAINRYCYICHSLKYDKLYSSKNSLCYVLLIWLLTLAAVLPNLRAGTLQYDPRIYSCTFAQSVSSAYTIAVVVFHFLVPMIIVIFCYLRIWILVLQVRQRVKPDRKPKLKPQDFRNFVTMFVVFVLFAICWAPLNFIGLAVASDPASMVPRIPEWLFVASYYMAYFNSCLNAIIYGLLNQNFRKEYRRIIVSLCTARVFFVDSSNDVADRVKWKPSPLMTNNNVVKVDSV

| SMILES | Emax [3] | EC50 [3] | Emax [4, 8] | EC50 [4] | Increment value in the urethra pressures (mmHg) ([5]; 0.1 mg/kg intravenously) | activation at 1 µM [6] | further results |
| --- | --- | --- | --- | --- | --- | --- | --- |
| CNC(=O)c1[nH]c2ccc(OC)cc2c1CCNC(C)=O [Ex 1, 3-(2-acetamidoethyl)-5-methoxy-N-methyl-1H-indole-2-carboxamide] | 108% | 26 nM | 104% | 12 nM | 5.1 ± 0.6 mmHg | 128% | Kp uu at 0.25 h [1]: 0.18; phototoxicity action [2]: no phototoxicity action |
| CNC(=O)NCCc1c(C(=O)NC)[nH]c2ccc(OC)cc12 [Ex 8, 5-methoxy-N-methyl-3-{2-[(methylcarbamoyl)amino]ethyl}-1H-indole-2-carboxamide] | 119% | 19 nM | 124% | 12 nM | 6.0 ± 0.4 mmHg |  | Kp uu at 0.25 h [1]: 0.03; phototoxicity action [2]: no phototoxicity action |
| CNC(=O)c1[nH]c2cc(Cl)c(OC)cc2c1CCNC(C)=O [Ex 12, 3-(2-acetamidoethyl)-6-chloro-5-methoxy-N-methyl-1H-indole-2-carboxamide] | 70% | 12 nM | 68% | 86 nM |  |  |  |
| CCCC(=O)NCCc1c(C(=O)NC)[nH]c2ccc(OC)cc12 [Ex 32] | 111% | 31 nM | 106% | 7.7 nM | 10.8 ± 2.9 mmHg | 143% |  |
| CCCC(=O)NCCc1c(C(=O)NC)[nH]c2cc(Cl)c(OC)cc12 [Ex 34, 3-[2-(butyrylamino)ethyl]-6-chloro-5-methoxy-N-methyl-1H-indole-2-carboxamide] | 92% | 4.4 nM | 75% | 32 nM |  |  |  |
| CCCC(=O)NCCc1c(C(=O)NC)[nH]c2cc(F)c(OC)cc12 [Ex 35] | 102% | 11 nM | 110% | 3.2 nM | 8.2 ± 1.6 mmHg | 171% |  |
| CCC(=O)NCCc1c(C(=O)NC)[nH]c2cc(F)c(OC)cc12 [Ex 36] | 104% | 18 nM | 121% | 10 nM | 7.3 ± 0.2 mmHg | 107% |  |
| CNC(=O)c1[nH]c2ccc(OC)nc2c1CCNC(=O)C(F)F [Ex 48] | 109% | 43 nM | 122% | 12 nM | 7.3 ± 0.7 mmHg |  |  |
| CNC(=O)c1[nH]c2c(F)cc(OC)cc2c1CCNC(=O)C(F)F [Ex 53] | 105% | 9.2 nM | 103% | 19 nM | 10.5 ± 0.6 mmHg |  |  |
| CC(=O)NCCc1c(Cc2ccccc2)[nH]c2ccccc12 [Luzindole] |  |  |  |  |  |  | Second contractile rate by ramelteon (%) ([7]; Luzindole 0.1 μM): 88 ± 11%; Second contractile rate by ramelteon (%) ([7]; Luzindole 1 μM): 75 ± 5%; Second contractile rate by ramelteon (%) ([7]; Luzindole 10 μM): 61 ± 9%; inhibition of isolated urethra contractile action by ramelteon ([7]; treatment with Luzindole 0.1-10 μM, in words): inhibited in a concentration-dependent manner |
| COc1ccc2[nH]cc(CCNC(C)=O)c2c1 [Melatonin, melatonin, reference compound] |  |  |  |  |  |  | Emax ([4]; HEK293, read-out: MT1 Emax (%)): 94% |
| COc1ccc(OC)c(C(O)CN)c1 (stereo not drawn) [ST-1059, reference compound] |  |  |  |  |  |  | Increment value in the urethra pressures (mmHg) ([5]; 0.01 mg/kg (rat dose presumed to correspond to clinical dose)): 4.9 ± 1.1 mmHg |

Source: patent US9376449B2, “Indole carboxamide derivative” (Astellas Pharma Inc., priority 2012, dated 2016)
